Test results published in patent US9738634B2, “Heterocyclic amide compound and herbicide” (SYNGENTA PARTICIPATIONS AG, priority 2013, dated 2017).

Experiments:
Type in all cases: in vivo
[1] = system: barnyard grass; assay: Test Example 1: weedkilling efficacy, preemergent weed treatment in the submerged state; A: barnyard grass; details: treatment dosage 320 g/ha
Procedure, shortened: (§1)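 Pre-emergence application onto floodwater (4 cm, alluvial soil) on the day of sowing, dose expressed as g/ha from diluted emulsion formulation. Weeds sown with 2.5-leaf transplanted rice as crop; plants held at 25–30 °C in greenhouse and scored against assessment criteria after 3 weeks.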

[2] = system: transplanted rice; assay: Test Example 1: preemergent weed treatment in the submerged state, effect on crop; a: transplanted rice; details: treatment dosage 320 g/ha
Procedure, shortened: as §1

[3] = system: wild oat; assay: Test Example 3: weedkilling efficacy through soil treatment; G: wild oat; details: soil treatment, treatment dosage 320 g/ha
Procedure, shortened: (§2)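 Crop and weed responses were judged three weeks after a uniform surface spray of the water-diluted emulsion at the given g/ha rate. Seeds sat beneath about 1.5 cm of sterilized diluvial soil, and boxes stood in a greenhouse at 25 to 30° C.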

[4] = system: wheat; assay: Test Example 3: soil treatment, effect on crop; e: wheat; details: soil treatment, treatment dosage 320 g/ha
Procedure, shortened: as §2

[5] = system: crabgrass; assay: Test Example 3: weedkilling efficacy through soil treatment; D: crabgrass; details: soil treatment, treatment dosage 320 g/ha
Procedure, shortened: as §2

[6] = system: black-grass; assay: Test Example 3: weedkilling efficacy through soil treatment; H: black-grass; details: soil treatment, treatment dosage 320 g/ha
Procedure, shortened: as §2

[7] = system: green foxtail; assay: Test Example 3: weedkilling efficacy through soil treatment; E: green foxtail; details: soil treatment, treatment dosage 320 g/ha
Procedure, shortened: as §2

[8] = system: corn; assay: Test Example 3: soil treatment, effect on crop; c: corn; details: soil treatment, treatment dosage 320 g/ha
Procedure, shortened: as §2

[9] = system: redroot pigweed; assay: Test Example 3: weedkilling efficacy through soil treatment; L: redroot pigweed; details: soil treatment, treatment dosage 320 g/ha
Procedure, shortened: as §2

[10] = system: bulrush; assay: Test Example 2: weedkilling efficacy, growth period weed treatment in the submerged state; B: bulrush; details: treatment dosage 320 g/ha
Procedure, shortened: (§3)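 Weeds treated at the 1-2 leaf stage by application of diluted emulsion onto floodwater (4 cm depth, alluvial soil) at specified g/ha. Grown in greenhouse at 25 to 30° C; herbicidal effect rated three weeks after treatment.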

[11] = system: Indian mallow; assay: Test Example 3: weedkilling efficacy through soil treatment; K: Indian mallow; details: soil treatment, treatment dosage 320 g/ha
Procedure, shortened: as §2

[12] = system: soybean; assay: Test Example 3: soil treatment, effect on crop; d: soybean; details: soil treatment, treatment dosage 320 g/ha
Procedure, shortened: as §2

[13] = system: birds-eye speedwell; assay: Test Example 3: weedkilling efficacy through soil treatment; p: birds-eye speedwell; details: soil treatment, treatment dosage 320 g/ha
Procedure, shortened: as §2

[14] = system: chickweed; assay: Test Example 3: weedkilling efficacy through soil treatment; N: chickweed; details: soil treatment, treatment dosage 320 g/ha
Procedure, shortened: as §2

[15] = system: beet; assay: Test Example 3: soil treatment, effect on crop; f: beet; details: soil treatment, treatment dosage 320 g/ha
Procedure, shortened: as §2

[16] = system: oval-leafed pondweed; assay: Test Example 1: weedkilling efficacy, preemergent weed treatment in the submerged state; C: oval-leafed pondweed; details: treatment dosage 320 g/ha
Procedure, shortened: as §1

[17] = system: rapeseed; assay: Test Example 3: soil treatment, effect on crop; g: rapeseed; details: soil treatment, treatment dosage 320 g/ha
Text: (§4) Weedkilling Efficacy Test Through Soil Treatment
(§5) Sterilized diluvial soil was introduced into 21 cm long, 13 cm wide, 7 cm deep plastic boxes, and seeds of crabgrass, green foxtail, barnyard grass, wild oat, black-grass, Italian ryegrass, common wind-grass, Indian mallow, redroot pigweed, fig-leafed goosefoot, chickweed, catchweed, birds-eye speedwell, corn, soybean, rice, wheat, beet and rapeseed were each spot-sown, and covered with about 1.5 cm of soil. Next, emulsions of compounds of the present invention prepared according to compounding example 2 were diluted with water to give the specified dosages, and applied uniformly onto the soil surface with a small sprayer. The plants were grown by placing the plastic boxes in a greenhouse at 25 to 30° C., and 3 weeks after the pesticide treatment the effect on each type of plant was investigated on the basis of the assessment criteria of test example 1.
(§6) A: barnyard grass, B: bulrush, C: oval-leafed pondweed, D: crabgrass, E: green foxtail, F: barnyard grass, G: wild oat, H: black-grass, I: Italian ryegrass, J: common wind-grass, K: Indian mallow, L: redroot pigweed, M: fig-leafed goosefoot, N: chickweed, O: catchweed, p: birds-eye speedwell, a: transplanted rice, b: directly sown rice, c: corn, d: soybean, e: wheat, f: beet, g: rapeseed
(§7) Further, pesticide dosage (g/ha) indicates the concentration regulated such that treatment was with only the stated number of grams (g), when calculated per hectare (ha).

[18] = system: directly sown rice; assay: Test Example 3: soil treatment, effect on crop; b: directly sown rice; details: soil treatment, treatment dosage 320 g/ha
Procedure, shortened: as §2

[19] = system: bulrush; assay: Test Example 1: weedkilling efficacy, preemergent weed treatment in the submerged state; B: bulrush; details: treatment dosage 320 g/ha
Procedure, shortened: as §1

[20] = system: barnyard grass; assay: Test Example 3: weedkilling efficacy through soil treatment; F: barnyard grass; details: soil treatment, treatment dosage 320 g/ha
Text: as §4, §5, §6, §7

[21] = system: common wind-grass; assay: Test Example 3: weedkilling efficacy through soil treatment; J: common wind-grass; details: soil treatment, treatment dosage 320 g/ha
Text: as §4, §5, §6, §7

[22] = system: oval-leafed pondweed; assay: Test Example 2: weedkilling efficacy, growth period weed treatment in the submerged state; C: oval-leafed pondweed; details: treatment dosage 320 g/ha
Procedure, shortened: as §3

[23] = system: barnyard grass; assay: Test Example 2: weedkilling efficacy, growth period weed treatment in the submerged state; A: barnyard grass; details: treatment dosage 320 g/ha
Procedure, shortened: as §3

[24] = system: fig-leafed goosefoot; assay: Test Example 3: weedkilling efficacy through soil treatment; M: fig-leafed goosefoot; details: soil treatment, treatment dosage 320 g/ha
Procedure, shortened: as §2

[25] = system: Italian ryegrass; assay: Test Example 3: weedkilling efficacy through soil treatment; I: Italian ryegrass; details: soil treatment, treatment dosage 320 g/ha
Procedure, shortened: as §2

| Compound | A: barnyard grass, weed kill grade [1] | a: transplanted rice, effect on crop grade [2] | G: wild oat, weedkilling efficacy grade [3] | e: wheat, effect on crop grade [4] | D: crabgrass, weedkilling efficacy grade [5] | H: black-grass, weedkilling efficacy grade [6] | E: green foxtail, weedkilling efficacy grade [7] | c: corn, effect on crop grade [8] | L: redroot pigweed, weedkilling efficacy grade [9] | B (bulrush) weedkilling efficacy grade [10] | K: Indian mallow, weedkilling efficacy grade [11] | d: soybean, effect on crop grade [12] | P: birds-eye speedwell, weedkilling efficacy grade [13] | N: chickweed, weedkilling efficacy grade [14] | f: beet, effect on crop grade [15] | g: rapeseed, effect on crop grade [17] | b: directly sown rice, effect on crop grade [18] | F: barnyard grass, weedkilling efficacy grade [20] | J: common wind-grass, weedkilling efficacy grade [21] | I: Italian ryegrass, weedkilling efficacy grade [25] | other results |
| --- | --- | --- | --- | --- | --- | --- | --- | --- | --- | --- | --- | --- | --- | --- | --- | --- | --- | --- | --- | --- | --- |
| Cc1cc(Cl)cc(NC(=O)C(C)(C)N2COCN(c3ccccc3)C2=O)n1 [A-2-25] | 5 (weed kill ratio 90% or more, (practically complete withering)) | 3 (weed kill ratio 40% or more, less than 70%) | 4 (weed kill ratio 70% or more, less than 90%) | 0 (weed kill ratio 5% or less (practically no effect)) | 5 (weed kill ratio 90% or more, (practically complete withering)) | 5 (weed kill ratio 90% or more, (practically complete withering)) | 5 (weed kill ratio 90% or more, (practically complete withering)) | 0 (weed kill ratio 5% or less (practically no effect)) | 4 (weed kill ratio 70% or more, less than 90%) | 5 (weed kill ratio 90% or more, (practically complete withering)) | 5 (weed kill ratio 90% or more, (practically complete withering)) | 0 (weed kill ratio 5% or less (practically no effect)) | 5 (weed kill ratio 90% or more, (practically complete withering)) | 4 (weed kill ratio 70% or more, less than 90%) | 4 (weed kill ratio 70% or more, less than 90%) | 3 (weed kill ratio 40% or more, less than 70%) | 5 (weed kill ratio 90% or more, (practically complete withering)) | 5 (weed kill ratio 90% or more, (practically complete withering)) | 5 (weed kill ratio 90% or more, (practically complete withering)) | 5 (weed kill ratio 90% or more, (practically complete withering)) | C: oval-leafed pondweed, weed kill grade [16]: 5 (weed kill ratio 90% or more, (practically complete withering)); B: bulrush, weed kill grade [19]: 5 (weed kill ratio 90% or more, (practically complete withering)); C (oval-leafed pondweed) weedkilling efficacy grade [22]: 5 (weed kill ratio 90% or more, (practically complete withering)); A (barnyard grass) weedkilling efficacy grade [23]: 5 (weed kill ratio 90% or more, (practically complete withering)); M: fig-leafed goosefoot, weedkilling efficacy grade [24]: 4 (weed kill ratio 70% or more, less than 90%) |
| CC(C)(C(=O)Nc1ccc2ccccc2n1)N1COCN(c2ccccc2)C1=O [A-1-24] | 5 (weed kill ratio 90% or more, (practically complete withering)) | 0 (weed kill ratio 5% or less (practically no effect)) | 0 (weed kill ratio 5% or less (practically no effect)) | 0 (weed kill ratio 5% or less (practically no effect)) | 3 (weed kill ratio 40% or more, less than 70%) | 1 (weed kill ratio 5% or more, less than 20%) | 3 (weed kill ratio 40% or more, less than 70%) | 0 (weed kill ratio 5% or less (practically no effect)) | 0 (weed kill ratio 5% or less (practically no effect)) | 5 (weed kill ratio 90% or more, (practically complete withering)) | 0 (weed kill ratio 5% or less (practically no effect)) | 0 (weed kill ratio 5% or less (practically no effect)) | 4 (weed kill ratio 70% or more, less than 90%) | 0 (weed kill ratio 5% or less (practically no effect)) | 0 (weed kill ratio 5% or less (practically no effect)) | 0 (weed kill ratio 5% or less (practically no effect)) | 0 (weed kill ratio 5% or less (practically no effect)) | 2 (weed kill ratio 20% or more, less than 40%) | 4 (weed kill ratio 70% or more, less than 90%) | 3 (weed kill ratio 40% or more, less than 70%) | C: oval-leafed pondweed, weed kill grade [16]: 5 (weed kill ratio 90% or more, (practically complete withering)); B: bulrush, weed kill grade [19]: 5 (weed kill ratio 90% or more, (practically complete withering)); C (oval-leafed pondweed) weedkilling efficacy grade [22]: 5 (weed kill ratio 90% or more, (practically complete withering)); A (barnyard grass) weedkilling efficacy grade [23]: 4 (weed kill ratio 70% or more, less than 90%) |
| CC(C)(C(=O)Nc1cc(Cl)cc(Cl)n1)N1COCN(c2ccccc2)C1=S [A-2-18, N-(4,6-dichloropyridin-2-yl)-2-methyl-2-(5-phenyl-4-thioxo-1,3,5-oxadiazinan-3-yl) propionamide] | – | – | 3 (weed kill ratio 40% or more, less than 70%) | 0 (weed kill ratio 5% or less (practically no effect)) | 5 (weed kill ratio 90% or more, (practically complete withering)) | 5 (weed kill ratio 90% or more, (practically complete withering)) | 5 (weed kill ratio 90% or more, (practically complete withering)) | 1 (weed kill ratio 5% or more, less than 20%) | 3 (weed kill ratio 40% or more, less than 70%) | – | 2 (weed kill ratio 20% or more, less than 40%) | 0 (weed kill ratio 5% or less (practically no effect)) | 5 (weed kill ratio 90% or more, (practically complete withering)) | 3 (weed kill ratio 40% or more, less than 70%) | 3 (weed kill ratio 40% or more, less than 70%) | 3 (weed kill ratio 40% or more, less than 70%) | 5 (weed kill ratio 90% or more, (practically complete withering)) | 5 (weed kill ratio 90% or more, (practically complete withering)) | 5 (weed kill ratio 90% or more, (practically complete withering)) | 5 (weed kill ratio 90% or more, (practically complete withering)) | M: fig-leafed goosefoot, weedkilling efficacy grade [24]: 3 (weed kill ratio 40% or more, less than 70%) |
